In a melting point compilation (Tetko et al.; mined from patent text by program, amines drawn as free bases though some values may be those of a salt):

| SMILES | melting point [°C] |
| --- | --- |
| CCn1cc(C(=O)O)c(=O)c2ccc(N3CCNCC3)nc21 | 272 to 273 |
| CC(=O)CS(=O)(=O)c1cccc2ccccc12 | 65 |
| CCOC(=O)CCSc1nnsc1-c1ccc(F)cc1 | 76.5 to 77.5 |
| c1ccc2c(c1)CCC1C2=NNC1c1ccncc1 (stereo not drawn) | 169 to 173 |
| Nc1cc(OCC(CO)OCP(=O)(O)O)nc(N)n1 (racemic) | 213 |
| Cc1c(NC(=O)c2ccc(OC[C@@H]3CCCO3)cc2)ccc2cc(CN3CCC(C)(O)CC3)n(C)c12 | 140 to 141 |
| O=S(=O)(NCCCCCCCCCCCCBr)c1ccc(Cl)cc1 | 70 to 73 |
| CC1CC(C)CN(C(=O)C2Cc3ccccc3N2C(=O)OC(C)(C)C)C1 (stereo not drawn) | 148 to 149 |
| Cc1nc2n(c1CC#N)CCCC2OCc1ccccc1 (stereo not drawn) | 132 to 134 |
| COc1ccc([C@@H]2CN(C)CC[C@@H]2NC(=O)c2ccccc2)cc1 (relative stereo) | 164 to 165 |
| CCC(C)OC1OCC(O)(N(CC(C)C)C(=O)N(CCCl)N=O)C(O)C1O (stereo not drawn) | 63 to 65 |
| CNC(=O)c1ccc(-c2ccc3nnn(Cc4ccc5ncccc5c4)c3n2)cc1F | 212 to 214 |
| N=C(Nc1ccccc1-c1ccccc1)N1CCC(=NO)CC1 | 175 to 176 |
| O=C(Cn1cccc(O)c1=O)NCCN(CCNC(=O)Cn1cccc(O)c1=O)CCNC(=O)Cn1cccc(O)c1=O | 112 to 114 |
| CSc1cc2nc[nH]c(=O)c2s1 | 216 to 218 |
| COCc1ccn2nc(SCc3ccccc3)nc2n1 | 92 |
| Cc1cc(O)c(C(=O)CCC(=O)O)cc1Cl | 181 to 182 |
| CC1(C)CC(=O)C1(Br)CC(Cl)(Cl)Cl (stereo not drawn) | 46 to 49 |
| Cc1cccc(C(=O)c2ncccc2C(=O)O)c1 | 184 to 189 |
| COC(=C1C2CC3CC1CC(O)(C3)C2)c1cccc(O)c1 | 171 to 172 |
| CC(C)(O)c1nnn(Cc2cccc(C(F)(F)F)c2)c1I | 77 to 80 |
| CC(=O)Oc1c(C2CCN(CCCCNC(=O)c3ccc(NC(=O)c4ccc(Cl)cc4)cc3)CC2)ccc2c1CCCC2 | 254 |
| O=C(c1ccc([N+](=O)[O-])cc1)N1CC2CC2(c2ccc(Cl)cc2)C1 (stereo not drawn) | 177 to 180 |

| SMILES | melting point [°C] |
| --- | --- |
| Cc1nnc2c(-c3ccccn3)cccn12 | 142 to 143 |
| O=c1c2cc(F)c(N3CCCC3)nc2n(-c2cccc(C(F)(F)F)c2)c(=O)n1OCc1ccccc1 | > 250 |
| COc1cc(N[C@H]2CC[C@H](NC3CCCC3)CC2)c(Cl)cc1C(N)=O | 169 to 171 |
| O=C1c2ccccc2C(O)N1CCO[N+](=O)[O-] (stereo not drawn) | 143 to 145 |
| OCc1ccc(-c2ccc(O)cc2)c(-c2ccc(O)cc2)c1 | 214 |
| C#Cc1ccc(S(N)(=O)=O)s1 | 114 to 116 |
| CC(C)(C)OC(=O)c1ccccc1NC(=O)CN1C(=O)c2ccccc2C1=O | 159 |
| Cn1c(S)nnc1COCC(=O)O | 155 to 156 |
| CCc1nc2c(N)nc3ccc(OCc4ccccc4)cc3c2n1CCCCNC(=O)N1CCOCC1 | 190 to 191 |
| CN=C(O)c1cc([N+](=O)[O-])cc([N+](=O)[O-])c1C(=O)O | 174 to 176 |
| CC1(C)OC(C=Cc2cc3ccccc3s2)=CC1=O | 104 |
| O=C1CN(c2cccc(CF)c2)NC(=O)N1 | 169 to 170 |
| O=C(c1ccc(Br)cc1)c1ccc(N2CCOCC2)cc1 | 178 to 179 |
| CC1CNC(CN(CC(=O)O)C(=O)c2ccccc2)c2ccccc21 (stereo not drawn) | 157 |
| COc1ccc(CC(C)NC(O)Cc2cc3ccccc3o2)cc1 (stereo not drawn) | 75 to 85 |
| CCCCN(CCCC)c1ccc(C=Cc2ccc(C=CC3=C(C#N)C(=C(C#N)C#N)OC3(C)C)cc2)cc1 | 224 to 226 |
| COc1ccc(S(=O)(=O)N2CCc3cccc(NC(=O)c4ccncc4)c32)cc1 | 219 to 220 |
| O=C(O)CN(C(=O)CCS)[C@H]1CC[C@H](c2ccccc2)CC1 | 125 to 130 |
| CCN(Cc1ccccc1)C(=O)Cc1c(-c2ccc(OC)cc2)nc2cc(C)ccn12 | 175 to 178 |
| Cc1cccc(N2Cc3nc(CO)nn3-c3ccccc32)c1C | 186 to 194 |
| CC1(C)COC(=O)N1c1nc(-c2cccc(Br)c2)cs1 | 142 to 144 |
| Cc1cc(-c2cc3c(cc2C)OC(C)(C)C=C3)ccn1 | 212 to 214 |
| NCc1sc(C(c2ccc(Cl)cc2)c2c(Cl)cc(-n3ncc(=O)[nH]c3=O)cc2Cl)nc1-c1ccccc1 (stereo not drawn) | 170 |

Further lines, results first:

| melting point [°C] | SMILES |
| --- | --- |
| 134 | CCOC(=O)c1cc(C)nc2c(OCc3ccccc3)cccc12 |
| 135 to 138 | COc1cc(C)cc(C2=NC(C)(C)CO2)c1N |
| > 250 | NC(c1ccccc1CNc1ccnc2cc(Cl)ccc12)c1ccnc2cc(Cl)ccc12 (stereo not drawn) |
| 57 to 59 | CC(C)Oc1ccc(CCCO)c(Oc2ncc(Cl)cc2Cl)c1 |
| 117 to 118 | OC(CCc1ccccc1)c1cnc2sc3c(n12)CCC3 (stereo not drawn) |
| 187 to 189 | CCC1(c2ccccc2)Cc2cc(OCC(=O)O)c(Cl)c(Cl)c2C1=O (stereo not drawn) |
| 238 to 242 | CC(=O)Nc1cc(Oc2ccc3c(C(=O)Nc4ccc(CN5CCN(C)CC5)cc4)cccc3c2)ncn1 |
| 125 to 126 | COc1ccc(Cn2nnnc2S(=O)(=O)c2ccc(C)cc2)cc1 |
| 134 to 135 | COc1ccc(CCNS(=O)(=O)Cc2ccc3[nH]cc(CC#N)c3c2)cc1 |
| 57 to 59 | CCOC(=O)C(C(=O)OCC)c1cccc2ccccc12 |
| 126 to 129 | COc1ccc(Oc2cnccc2N)c2ccccc12 |
| 192 to 193 | COc1cccc(CNc2n[nH]c3ncnc(Nc4cccc(Cl)c4)c23)c1 |
| 138 to 139 | COc1ccc(Cc2cc3cccc(-c4cccc(C(=O)NCCO)c4)c3s2)cn1 |
| 247 to 251 | CSc1ncc2cc(Oc3c(F)cccc3F)c(=O)n(C)c2n1 |
| 151 to 152 | O=C(CCc1nnc(-c2ccc3c(c2)CCO3)o1)c1cccs1 |
| 101 to 103 | COc1ccc(CN2CCc3c(c(=O)oc4cc(OC)ccc34)C2)cc1 |
| 137 to 138 | CCOC(=O)C(C(=O)OCC)C(=O)c1ccc2oc3ncccc3c(=O)c2c1 |
| 179 to 180 | COc1ccc(C(=O)Nc2cccnc2)cc1NC(=S)Nc1ccc(Cl)c(Cl)c1 |
| 142 | COc1cc(C=CC(=O)OC2C=C(C)C(=O)CC(C)(C)C2O)ccc1O (stereo not drawn) |
| 80 to 82 | C=CCOc1ccc2oc(C(=O)c3ccc(F)cc3)c(C)c2c1 |
| 45 to 47 | CCOC(=O)c1ccc(OCCCCCCc2cccc(O)c2O)cc1 |
| 78 to 79 | OCCc1ccc(Oc2cc(C(F)(F)F)ccn2)cc1 |
| 102 to 105 | CC(C)=CCOC(=O)c1cnn(-c2c(Cl)cc(Cl)cc2Cl)c1N |
| 99 | Cc1cc(-c2ccc(Cl)cc2)cnc1N=CN(C)C |
| 35 to 36 | CCCSc1cc(OCc2ccc(Cl)cc2)ccc1C |
| 174 | CCCCN1CCN(NC(=O)c2cc(Cl)c(N)cc2OC)CC1 |
| 146 to 147 | CCOC(=O)C(Cc1ccccc1)NC(=O)c1cc2cc(Cl)ccc2[nH]1 (stereo not drawn) |
